{"source": "patent US20190076406A1", "about": "“METHODS AND COMPOSITIONS FOR TREATING CONDITIONS ASSOCIATED WITH ANGIOGENESIS USING A VASCULAR ADHESION PROTEIN-1 (VAP-1) INHIBITOR” (MASSACHUSETTS EYE & EAR INFIRMARY, priority 2007, published 2019)", "key": {"[1]": {"tested_on": "IL-1β-induced corneal lymphangiogenesis in BALB/c mice", "test": "IL-1β-induced corneal lymphangiogenesis (LYVE-1 stain)", "format": "in vivo, mouse", "conditions": "IL-1β pellet; i.p. administration; vs vehicle", "procedure": "(§1) BALB/c mice were anesthetized by intrapcritoneal (i.p.) injection of pentobarbital sodium (60 mg/kg). Hydron pellets (0.3 μl) containing 30 ng mouse IL-1β (401-ML; R&D Systems) were prepared and implanted into the corneas. Pellets were positioned 1 mm from the corneal limbus. Implanted eyes were treated with Bacitracin ophthalmic ointment (E. Fougera & Co.) to prevent infection.\n(§2) To block VAP-1, mice received daily i.p. injections of a specific VAP-1 inhibitor, Compound II (R-tech Ueno Ltd., Tokyo, Japan) as described above. A daily dose of 0.3 mg/kg was administered at day 0 and continued until the sixth day after implantation. Two, four and six days after implantation, digital images of the corneal vessels were obtained and recorded using OpenLab software version 2.2.5 (Improvision Inc.) with standardized illumination and contrast and were saved onto disks. The quantitative analysis of new vessel growth in the mouse corneas was performed using Scion Image software (version 4.0.2; Scion Corp.).\nEyes were enucleated and fixed with 4% paraformaldehyde for one hour at 4° C. For whole-mount preparation, the corneas were exposed by removing other portions of the eye (i.e. iris, sclera, retina, and conjunctiva). After washing with PBS, tissues were placed in methanol for 20 minutes. […]"}, "[2]": {"tested_on": "IL-1β-induced corneal angiogenesis in BALB/c mice", "test": "IL-1β-induced corneal angiogenesis", "format": "in vivo, mouse", "conditions": "day 6 after pellet implantation; 0.3 mg/kg daily i.p.", "procedure": "as §1, §2"}, "[3]": {"tested_on": "IL-1β-induced corneal angiogenesis in BALB/c mice", "test": "Leukocyte infiltration in IL-1β-implanted cornea (immunostaining)", "format": "in vivo, mouse", "conditions": "0.3 mg/kg daily i.p.", "procedure": "as §1, §2\nMice were sacrificed under deep anesthesia with pentobarbital sodium (60 mg/kg i.p.). The eyes were harvested, snap-frozen in optimal cutting temperature (OCT) compound (Sakura Finetechnical) and 10 μm sections were prepared, air-dried and fixed in cold acetone for 10 min. The sections were blocked with nonfat dried-milk (M7409; Sigma) for 10 minutes and stained with anti-CD11b mAb (1:100, 550282; BD Pharmingen), anti-Gr-1 mAb (1:100, 550282; BD Pharmingen) or anti-F4/80 mAb (1:100, MCA497G; Scrotec). After an overnight incubation, sections were washed and stained for 20 min. with secondary Abs, FITC-conjugated goat anti-rat (1:100, AP136F; Chemicon International)."}, "TNF-α": {"tested_on": "TNF-α", "test": "ELISA of TNF-α in RPE-choroid complex after laser injury", "format": "in vivo, rat", "conditions": "3 days after laser injury; 0.3 mg/kg daily i.p.; mean±SEM", "procedure": "(§3) Brown-Norway rats were anesthetized with 0.2-0.3 ml of a 50:50 mixture of 100 mg/ml Ketamine and 20 mg/ml Xylazine. Pupils were dilated with 5.0% Phenylephrine and 0.8% Tropicamide. CNV was induced with a 532 nm laser (Oculight GLx, Iridex, Mountain View, Calif.). Six laser spots (150 mW, 100 μm, 100 msec) were placed in each eye using a slit-lamp delivery system and a cover glass as a contact lens. Production of a bubble at the time of laser confirmed the rupture of the Bruch's membrane.\nTo block VAP-1, a specific VAP-1 inhibitor, Compound II described above, was used (R-tech Ueno, Ltd., Tokyo, Japan). […]\nThe RPE-choroid complex was carefully isolated from eyes 3 days after photocoagulation and placed in 300 μl of lysis buffer supplemented with protease inhibitors and sonicated. The lysate was centrifuged at 15,000 rpm for 15 minutes at 4° C. and the levels of TNF-α, monocyte chemotactic protein (MCP)-1, and intercellular adhesion molecule (ICAM)-1 were determined with rat TNF-α (BD bioscience), MCP-1 (BD bioscience) and ICAM-1 (R&D Systems, Minneapolis, Minn.) enzyme-linked immunosorbent assay (ELISA) kits according to the manufacturers' protocols. Total protein concentration was determined using a Bio-Rad Protein Assay Kit (Bio-Rad Laboratories Hercules, Calif.) and dilutions of bovine serum albumin (Bio-Rad Laboratories) as standards."}, "[4]": {"tested_on": "laser-induced CNV in Brown-Norway rats", "test": "Laser-induced CNV, fluorescein angiography leakage grading", "format": "in vivo, rat", "conditions": "day 7 after laser injury, 0.3 mg/kg daily i.p., n=12", "procedure": "as §3\nTo block VAP-1, a specific VAP-1 inhibitor, Compound II described above, was used (R-tech Ueno, Ltd., Tokyo, Japan). After laser injury, the inhibitor (0.3 mg/kg BW) was administered to the animals by daily i.p. injections. As a control, some animals received the same regimen for the vehicle solution alone.\nSeven days after laser injury, vascular leakage from the CNV lesions was assessed using fluorescein angiography (FA), as described previously (Zambarakji et al. (2001) IOVS 42: 1553-60). Briefly, FA was performed in anesthetized animals from VAP-1 inhibitor- or vehicle-treated groups, using a digital fundus camera (Model TRC 50 IA; Topcon, Paramus, N.J.). Fluorescein injections were performed intraperitoneally (0.2 ml of 2% fluorescein; Akorn, Decatur, Ill.).\nThe Grade-IIB lesions were defined as clinically significant, as described previously."}}, "data": [{"compound": "CC(=O)Nc1nc(CCc2ccc(NC(=N)NN)cc2)c(Cc2ccc(S(C)(=O)=O)cc2)s1", "note": "[Compound II]", "values": [{"measurement": "growth of lymphatic vessels in cornea", "setting": "[1]", "value": "reduced growth of lymphatic vessels"}, {"measurement": "neovascular area relative to control mice (IL-1β alone or IL-1β+vehicle)", "setting": "[2]", "value": "about half"}, {"measurement": "infiltration of CD11b(+) cells in cornea", "setting": "[3]; 3 days after pellet implantation", "value": "effectively inhibited"}, {"measurement": "number of F4/80(+) cells in cornea", "setting": "[3]; IL-1β-implanted cornea", "value": "less than in vehicle-treated cornea or untreated cornea"}, {"measurement": "number of Gr-1(+) cells in cornea", "setting": "[3]; IL-1β-implanted cornea", "value": "less than in vehicle-treated cornea or untreated cornea"}, {"measurement": "TNF-α protein level in RPE-choroid complex", "setting": "TNF-α", "value": "360 ± 12", "unit": "pg/mg"}, {"measurement": "incidence of clinically significant CNV lesions graded as IIB", "setting": "[4]", "value": 41.8, "unit": "%"}]}]}
